Data from US20230025280A1, “PH RESPONSIVE COMPOSITIONS, FORMULATIONS, AND METHODS OF IMAGING A TUMOR” (ONCONANO MEDICINE, INC, priority 2019, published 2023).
Where “and” joins values, the source holds several entries; their conditions need not be identical. Identical values can stand only once. Entries after “also recorded” stand apart in the source; their conditions may differ.

What was measured:
[1] = system: solid cancers (HNSCC, breast cancer, esophageal cancer, or colorectal cancer); assay: Intraoperative fluorescence imaging of tumors (in vivo and back table; MFI, CNR, TBR); design: species or system human; details: for In Vivo CNR / In Vivo TBR: per patient, open field cameras; for Patient tumors showing Compound 1 fluorescence intraoperatively: 0.1 to 1.2 mg/kg, 24±8 h post dose; for Tumors visualized intraoperatively by Compound 1 fluorescence / Tumors that could not be visualized intraoperatively: Phase 1 overall
Source text: During surgery, intraoperative images of Compound 1 fluorescence were obtained from the primary tumors and metastatic lymph nodes as well as the surrounding tissue which include normal noncancerous tissues using NIR camera(s). This may be in vivo and/or ex vivo imaging of resected specimens. If the surgeon considered it safe, up to a maximum of 10 study related biopsies were taken from the regions with Compound 1 fluorescence that were otherwise not suspected as tumor clinically. Feasibility to image tumors with Compound 1 using multiple NIR cameras was evaluated.
Intraoperative images and videos of “open surgery” were obtained using either the NOVADAQ SPY Elite or the SurgVision Explorer Air. The distance of the camera to the tumor was approximately 20 cm for the Explorer Air and 30 cm for the NOVADAQ SPY, according to manual instructions. The NOVADAQ SPY camera was only able to make fluorescent videos, which could be converted to images during post-processing. The settings for raw data acquisition for this camera were fixed. For the Explorer Air, attempt was made to use the same settings (exposure time and gain) for each patient to allow direct comparison between the images obtained from both the systems, however, depending on the amount of fluorescence visible during surgery, adjustments were needed in some cases due to saturation of the camera system. In some patients, the Olympus NIR laparoscope and Da Vinci Firefly camera systems were used when no open surgery was performed. Systems were used according to the manufacturer's manual.
First, pre-excision fluorescence images and/or movies of the tumor and surrounding areas were made. After surgical excision, images of the wound bed were obtained. In cases where a fluorescence region was visible in the wound bed, a biopsy was taken when feasible, and the excised specimen imaged on all sides on the back table in the operating room. If applicable, lymph nodes were imaged when possible in situ and on the back table, after which the wound bed of the lymph node dissection was imaged again.
Designated imaging study staff performed fluorescence imaging. The surgeon was blinded to the pre-excision imaging to avoid any bias on standard surgery, but was able to look at a second monitor for white-light images while performing the surgical procedure. The surgeon assisted in the wound bed and back table imaging. During the imaging procedure, the ambient light in the surgical theatre was switched off to prevent possible interaction with the fluorescence imaging procedure itself.
Images were processed using Fiji (ImageJ, version 2.0.0). Images were scaled on a per-patient basis, based on the maximum and minimum fluorescent intensity per pixel.
Immediately after excision, the whole specimen was imaged on all 6 resection planes (e.g., frontal, dorsal, lateral, medial, caudal and cranial) using both the designated intraoperative camera system as well as the LI-COR PEARL® Trilogy system within a maximum duration of 60 minutes after surgical excision of the specimen (intraoperative back table imaging). […] Specimens were inked with blue and black ink to mark resection planes.
A macroscopic correlation between visible white light of the tumor areas and corresponding fluorescence images was made. After drawing ROIs containing macroscopic tumor and ROIs containing background, MFI of both tumor and background areas were calculated. Fluorescence ratios (CNR, TBR) were calculated on a per patient basis (3 measurements per patient) following the calculations described above.

[2] = system: tumor positive surgical margins; assay: Fluorescence detection of tumor positive surgical margins versus final histopathology; assay type: in vivo, human; design: key to Histology vs. Fluorescence Correlation: TP = true positive; TN = true negative; FP = false positive; details: for Histology vs. Fluorescence Correlation / Surgical Margin by Fluorescence: per patient
Source text: Tumor specimens were processed for histology according to the standard pathology practice used in clinical cancer care. Diagnosis on margins, selected histological features necessary for clinical decision making were provided. Fluorescence images were collected from the tumor and lymph node specimens and study-related biopsies. Margin width and number of positive margins were noted and correlated to the location of fluorescence in the margins. From this, the correlation between Compound 1 fluorescence and histopathology were calculated.
In a total of 24 patients (HNSCC:13; BC:11), 9 patients (HNSCC:6; BC:3) had histologically confirmed tumor positive surgical margins that were undetected during SOC surgery. Fluorescence guided margin assessment was performed on a per-patient basis. Compound 1 imaging visualized all of these surgical margin patients yielding 100% sensitivity. […] There were 5 of 15 false positives (specificity of 67%), in which fluorescence detected tissue was not confirmed to be tumor by histopathological assessment. 5 of 14 (36%) patients had fluorescent tissues that were negative for tumor (PPV: 64%).
In this Phase 1 study, the intraoperative and postoperative imaging data was used for a preliminary analysis of the diagnostic performance of Compound 1. Performance parameters such as MFI, CNR, and TBR were calculated in vivo and in tissue slices to characterize the ability of Compound 1 to delineate tumor tissue from background. Sensitivity and specificity for detecting tumor tissue from the adjacent normal tissue was evaluated using tissue specimen fluorescence and presented as a ROC curve. The sensitivity, specificity, and PPV of Compound 1 fluorescence in detecting pathology confirmed tumor positive margins were obtained at the patient level.

[3] = 24 patients (HNSCC:13; BC:11), per-patient

Substance: PEO90-140-b-P(DBA60-150-r-ICG0-3-r-AMA0-3) [Compound 1]
- In Vivo CNR ([1]; 0.1 mg/kg, HNSCC): 2.9 and 21.5 and 3.3
- In Vivo TBR ([1]; 0.1 mg/kg, HNSCC): 1.7 (2×) and 5.7
- In Vivo CNR ([1]; 0.5 mg/kg, BC): 2.5
- In Vivo TBR ([1]; 0.5 mg/kg, BC): 1.6
- In Vivo CNR ([1]; 0.5 mg/kg, HNSCC): 17.3 and 29.3
- In Vivo TBR ([1]; 0.5 mg/kg, HNSCC): 3.3 and 5.0
- In Vivo CNR ([1]; 0.8 mg/kg, BC): 12.7
- In Vivo TBR ([1]; 0.8 mg/kg, BC): 3.7
- In Vivo CNR ([1]; 0.8 mg/kg, HNSCC): 4.1
- In Vivo TBR ([1]; 0.8 mg/kg, HNSCC): 2.7
- Patients for whom in vivo (intraoperative) imaging was feasible ([1]; 1.2 mg/kg, Phase 1a and 1b, all tumor types): 11 of 18 and 11 of the 18
- Patients for whom in vivo imaging was feasible ([1]; 1.2 mg/kg, BC): 3 of 5
- In Vivo CNR ([1]; 1.2 mg/kg, BC): 7.8 and 9.2 and 1.3
- In Vivo TBR ([1]; 1.2 mg/kg, BC): 3.9 and 3.4 and 1.2
- Patients for whom in vivo imaging was feasible ([1]; 1.2 mg/kg, CRC): 1 of 3
- In Vivo CNR ([1]; 1.2 mg/kg, CRC): 7.4
- In Vivo TBR ([1]; 1.2 mg/kg, CRC): 2.4
- Patients for whom in vivo imaging was feasible ([1]; 1.2 mg/kg, EC): 0 of 3
- Patients for whom in vivo imaging was feasible ([1]; 1.2 mg/kg, HNSCC): 7 of 7
- In Vivo CNR ([1]; 1.2 mg/kg, HNSCC): 28.7 and 5.8 and 20.8 and 29.9 and 3.4 and 2.8 and 3.5
- In Vivo TBR ([1]; 1.2 mg/kg, HNSCC): 4.7 and 2.1 and 2.9 and 5.4 and 2.3 and 1.8 and 2.7
- Median in vivo TBR ([1]; 1.2 mg/kg, mucosal tumors (HNSCC), interquartile range of 1.4): 2.6
- Median in vivo CNR ([1]; 1.2 mg/kg, mucosal tumors (HNSCC), interquartile range of 17.6): 5.6
- Patients in whom fluorescence imaging was feasible (patients with viable tumors) ([1]; Phase 1, all 4 tumor types): 29 out of 30
- Patient tumors showing Compound 1 fluorescence intraoperatively ([1]; Phase 1a, BC): Two of the 7 and 2 of 7
- Patient tumors showing Compound 1 fluorescence intraoperatively ([1]; Phase 1a, HNSCC): 8 and 8 of 8
- CNR and TBR values ([1]; Phase 1a, in vivo tumor and postoperative specimen fluorescence): 2-15
- Intraoperative detection of intraluminal EC tumors ([1]; Phase 1b, 3 EC tumors, extraluminal imaging, 1.2 mg/kg): not detected
- Patient tumors in which Compound 1 fluoresced intraoperatively ([1]; Phase 1b, BC, 1.2 mg/kg): 3 of 4
- Patient tumors in which Compound 1 fluoresced intraoperatively ([1]; Phase 1b, CRC, 1.2 mg/kg): 2 of 3
- Patient tumors in which Compound 1 fluoresced intraoperatively ([1]; Phase 1b, HNSCC, 1.2 mg/kg): 5 of 5
- Patient tumors in which Compound 1 fluoresced intraoperatively ([1]; Phase 1b, all tumor types, 1.2 mg/kg): 10/15
- Tumors visualized intraoperatively by Compound 1 fluorescence ([1]; CRC): 2 of 3
- Tumors that could not be visualized intraoperatively ([1]; CRC (distant rectal tumor)): 1 of 3
- Tumors visualized intraoperatively by Compound 1 fluorescence ([1]; HNSCC): 13
- Tumors that could not be visualized intraoperatively ([1]; deeper seated BC): 6 of 11
- Tumors that could not be visualized intraoperatively ([1]; intraluminal EC): 2 of 3
- Tumors visualized intraoperatively by Compound 1 fluorescence ([1]; superficially seated BC): 5 of 11
- Intraoperative TBR and CNR values ([1]; all patients with feasible intraoperative imaging): high
- Histology vs. Fluorescence Correlation ([2]; 0.1 mg/kg, HNSCC): TP (2×) and TN
- Surgical Margin by Fluorescence ([2]; 0.1 mg/kg, HNSCC): Positive; also recorded: Negative
- Histology vs. Fluorescence Correlation ([2]; 0.3 mg/kg, BC): TP and TN (2×)
- Surgical Margin by Fluorescence ([2]; 0.3 mg/kg, BC): Positive; also recorded: Negative
- Histology vs. Fluorescence Correlation ([2]; 0.5 mg/kg, BC): TN
- Surgical Margin by Fluorescence ([2]; 0.5 mg/kg, BC): Negative
- Histology vs. Fluorescence Correlation ([2]; 0.5 mg/kg, HNSCC): TN and TP
- Surgical Margin by Fluorescence ([2]; 0.5 mg/kg, HNSCC): Negative; also recorded: Positive
- Histology vs. Fluorescence Correlation ([2]; 0.8 mg/kg, BC): TN and TP
- Surgical Margin by Fluorescence ([2]; 0.8 mg/kg, BC): Negative; also recorded: Positive
- Histology vs. Fluorescence Correlation ([2]; 0.8 mg/kg, HNSCC): FP
- Surgical Margin by Fluorescence ([2]; 0.8 mg/kg, HNSCC): Positive
- Histology vs. Fluorescence Correlation ([2]; 1.2 mg/kg, BC): TN (2×) and FP (2×) and TP
- Surgical Margin by Fluorescence ([2]; 1.2 mg/kg, BC): Negative; also recorded: Positive
- Histology vs. Fluorescence Correlation ([2]; 1.2 mg/kg, CRC): TN
- Surgical Margin by Fluorescence ([2]; 1.2 mg/kg, CRC): Negative
- Histology vs. Fluorescence Correlation ([2]; 1.2 mg/kg, EC): TN
- Histology vs. Fluorescence Correlation ([2]; 1.2 mg/kg, HNSCC): TP (3×) and FP (2×) and TN (2×)
- Surgical Margin by Fluorescence ([2]; 1.2 mg/kg, HNSCC): Positive; also recorded: Negative
- Fluorescence in patients with histologically negative margin ([2]; 2 of 3 EC and 1 of 3 CRC patients): negative
- PPV for surgical margin patients [2, 3]: 64%
- Sensitivity for tumor positive surgical margin patients [2, 3]: 100%
- Specificity for surgical margin patients [2, 3]: 67%
- Patients with false positive fluorescence margins ([2]; BC): 2
- Sensitivity for positive margin patients ([2]; BC): 100%
- Specificity for positive margin patients ([2]; BC): 75%
- Patients with false positive fluorescence margins ([2]; HNSCC): 3
- Sensitivity for positive margin patients ([2]; HNSCC): 100%
- Specificity for positive margin patients ([2]; HNSCC): 57%
- False negatives in surgical margin detection ([2]; HNSCC and BC): no false negatives
- False positives (fluorescent tissue not confirmed tumor by histopathology) ([2]; HNSCC and BC, per-patient): 5 of 15
- Histologically proven tumor positive surgical margins detected ([2]; HNSCC:6, BC:3): 9 out of 9 and 9
